From patent US5081232A, “Complexes of TC99m radiopharmaceuticals” (priority 1987, dated 1992)
Read-outs that look alike come from different tables or passages of the source. Blank lines part the entries; values can stand above or below the molecule they belong to.

What was measured:
[1] = rat, in vivo, iv
Description: (§1) 0.1 ml Tc^99m prep was injected i.v. into a lateral tail vein of 6 anaesthetised rats.
(§2) At 2 minutes and 60 minutes post injection, 3 rats were sacrificed by decapitation, bled from the neck and dissected. The following organs were removed at dissection: kidney, bladder(+urine), lung, liver, spleen, stomach, small intestine, large intestine, brain (weighed), heart (weighed), thyroid, and samples of blood (weighed) and muscle (weighed, the residual carcass and the tail (injection site). Subsequently samples were counted in an automatic twin crystal gamma counter.
(§3) Percentage biodistribution of injected material was calculated (after correction for background) for all organs using the formula: [formula]
(§4) Since only samples of muscle and blood were taken, the percentage in these tissues was calculated assuming blood and muscle to represent 5.8 and 43% of total animal weight respectively using the formula: [formula] where CF= 0.058 for blood

[2] = Animal biodistribution (in vivo, i.v. injection); details: rats; for Blood, % injected dose/organ: blood taken as 5.8% of body weight; for Muscle, % injected dose/organ: muscle taken as 43% of body weight
Description: as §1, §2, §3, §4

[3] = Electrophoresis (behaviour of complex under electrophoretic conditions); format: physicochemical; details: Tc-99 and Tc-99m
Description: A 0.1 g Agarose/10 cm^3 50 mM Phosphate buffer pH 7.4 gel was run at an applied potential of 300 VV for approximately 35 mins, using bromophenol blue indicator (this indicator moves towards the […]). The resulting distribution of activity was determined using suitable equipment.

Compound: CCP(CC)CCP(CC)CC.CCP(CC)CCP(CC)CC.O=[N][99Tc+][Cl].[Cl-] [[^99m Tc(NO(DEPE)2 Cl]^+]
Blood, % injected dose/organ ([1]; 2 min): 6.00 % injected dose/organ
Heart, % injected dose/organ ([1]; 2 min): 1.06 % injected dose/organ
Heart/Blood Counts/Gram ratio ([1]; 2 min): 3.03
Heart/Liver Counts/Gram ratio ([1]; 2 min): 0.73
Heart/Lung Counts/Gram ratio ([1]; 2 min): 0.4
Heart/Muscle Counts/Gram ratio ([1]; 2 min): 5.94
Kidney + Urine, % injected dose/organ ([1]; 2 min): 13.8 % injected dose/organ
Liver + GI, % injected dose/organ ([1]; 2 min): 37.3 % injected dose/organ
Liver, % injected dose/organ ([1]; 2 min): 23.63 % injected dose/organ
Lung, % injected dose/organ ([1]; 2 min): 2.98 % injected dose/organ
Muscle, % injected dose/organ ([1]; 2 min): 22.9 % injected dose/organ
Blood, % injected dose/organ ([1]; 60 min): 0.41 % injected dose/organ
Heart, % injected dose/organ ([1]; 60 min): 0.92 % injected dose/organ
Heart/Blood Counts/Gram ratio ([1]; 60 min): 38.1
Heart/Liver Counts/Gram ratio ([1]; 60 min): 1.75
Heart/Lung Counts/Gram ratio ([1]; 60 min): 0.6
Heart/Muscle Counts/Gram ratio ([1]; 60 min): 6.18
Kidney + Urine, % injected dose/organ ([1]; 60 min): 19.3 % injected dose/organ
Liver + GI, % injected dose/organ ([1]; 60 min): 47.0 % injected dose/organ
Liver, % injected dose/organ ([1]; 60 min): 7.54 % injected dose/organ
Lung, % injected dose/organ ([1]; 60 min): 1.57 % injected dose/organ
Muscle, % injected dose/organ ([1]; 60 min): 19.1 % injected dose/organ

Compound: CCCP(C)CCP(C)CCC.CCCP(C)CC[P](C)(CCC)[99Tc+]([Cl])[N]=O (stereo not drawn) [[^99m Tc(NO) × (PMPE)2]^+]
Blood, % injected dose/organ ([1]; 2 min): 3.27 % injected dose/organ
Heart, % injected dose/organ ([1]; 2 min): 0.92 % injected dose/organ
Heart/Blood Counts/Gram ratio ([1]; 2 min): 4.15
Heart/Liver Counts/Gram ratio ([1]; 2 min): 0.44
Heart/Muscle Counts/Gram ratio ([1]; 2 min): 4.78
Kidney + Urine, % injected dose/organ ([1]; 2 min): 13.3 % injected dose/organ
Liver + GI, % injected dose/organ ([1]; 2 min): 44.7 % injected dose/organ
Liver, % injected dose/organ ([1]; 2 min): 27.4 % injected dose/organ
Lung, % injected dose/organ ([1]; 2 min): 1.40 % injected dose/organ
Muscle, % injected dose/organ ([1]; 2 min): 21.1 % injected dose/organ
Blood, % injected dose/organ ([1]; 60 min): 0.42 % injected dose/organ
Heart, % injected dose/organ ([1]; 60 min): 0.77 % injected dose/organ
Heart/Blood Counts/Gram ratio ([1]; 60 min): 27.8
Heart/Liver Counts/Gram ratio ([1]; 60 min): 1.65
Heart/Lung Counts/Gram ratio ([1]; 60 min): 2.3
Heart/Muscle Counts/Gram ratio ([1]; 60 min): 5.01
Kidney + Urine, % injected dose/organ ([1]; 60 min): 15.2 % injected dose/organ
Liver + GI, % injected dose/organ ([1]; 60 min): 53.6 % injected dose/organ
Liver, % injected dose/organ ([1]; 60 min): 6.23 % injected dose/organ
Lung, % injected dose/organ ([1]; 60 min): 0.53 % injected dose/organ
Muscle, % injected dose/organ ([1]; 60 min): 17.5 % injected dose/organ
Heart/Lung Counts/Gram ratio ([2]; 2 min p.i.): 1.0

Brain, % injected dose/organ ([2]; 2 min p.i.): 0.10 % injected dose/organ
Heart, % injected dose/organ ([2]; 2 min p.i.): 0.56 % injected dose/organ
Heart/Blood Counts/Gram ratio ([2]; 2 min p.i.): 2.2
Heart/Liver Counts/Gram ratio ([2]; 2 min p.i.): 2.30
Heart/Lung Counts/Gram ratio ([2]; 2 min p.i.): 1.12
Heart/Muscle Counts/Gram ratio ([2]; 2 min p.i.): 2.19
Kidney + Urine, % injected dose/organ ([2]; 2 min p.i.): 1.61 % injected dose/organ
Liver + GI, % injected dose/organ ([2]; 2 min p.i.): 0.00 % injected dose/organ
Liver, % injected dose/organ ([2]; 2 min p.i.): 3.12 % injected dose/organ
Lung, % injected dose/organ ([2]; 2 min p.i.): 0.73 % injected dose/organ
Blood, % injected dose/organ ([2]; 2 min p.i.): 3.56 % injected dose/organ
Muscle, % injected dose/organ ([2]; 2 min p.i.): 27.9 % injected dose/organ
Brain, % injected dose/organ ([2]; 60 min p.i.): 0.05 % injected dose/organ
Heart, % injected dose/organ ([2]; 60 min p.i.): 0.23 % injected dose/organ
Heart/Blood Counts/Gram ratio ([2]; 60 min p.i.): 1.76
Heart/Liver Counts/Gram ratio ([2]; 60 min p.i.): 0.39
Heart/Lung Counts/Gram ratio ([2]; 60 min p.i.): 0.74
Heart/Muscle Counts/Gram ratio ([2]; 60 min p.i.): 1.84
Kidney + Urine, % injected dose/organ ([2]; 60 min p.i.): 13.55 % injected dose/organ
Liver + GI, % injected dose/organ ([2]; 60 min p.i.): 0.00 % injected dose/organ
Liver, % injected dose/organ ([2]; 60 min p.i.): 8.27 % injected dose/organ
Lung, % injected dose/organ ([2]; 60 min p.i.): 0.53 % injected dose/organ
Blood, % injected dose/organ ([2]; 60 min p.i.): 2.00 % injected dose/organ
Muscle, % injected dose/organ ([2]; 60 min p.i.): 14.37 % injected dose/organ
Compound: CC(=O)C=C(C)[O][99Tc-]([Cl])([Cl])([Cl])[N]=O [[^99 Tc(NO)Cl3 (acac)]^-, trichloro(pentan-2,4-dionato) nitrosyltechnetium(II) anion]
Stability under electrophoretic conditions [3]: decomposed under electrophoretic conditions
